According to the NIST ThermoML archive (doi:10.1016/j.jct.2019.03.025):

Test: xn = mol fraction of the nth substance listed
Conditions: Liquid, Vibrating tube method

Cc1cccc(C)c1 [1,3-dimethylbenzene] + CCCCCCCCCC
mass density [kg/m3]
Conditions | 293.15 K | 303.15 K | 313.15 K | 323.15 K | 333.15 K | 343.15 K | 353.15 K | 363.15 K
100 kPa, x2 = 0 | 864.2 | 855 | 846.7 | 837.7 | 829 | 820 | 811.3 | 802.2
100 kPa, x2 = 0.2005 | 825.1 | 816 | 808.1 | 799.4 | 791.1 | 782.3 | 773.9 | 765.1
100 kPa, x2 = 0.3999 | 793.6 | 784.6 | 777 | 768.6 | 760.5 | 752 | 743.8 | 735.2
100 kPa, x2 = 0.603 | 768.3 | 759.3 | 752 | 743.9 | 735.9 | 727.6 | 719.6 | 711.3
100 kPa, x2 = 0.7998 | 748.3 | 739.4 | 732.3 | 724.4 | 716.6 | 708.4 | 700.5 | 692.3
1000 kPa, x2 = 0 | 864.4 | 855.4 | 846.9 | 838.6 | 829.8 | 821.1 | 812.2 | 803.3
1000 kPa, x2 = 0.2005 | 825.4 | 816.7 | 808.4 | 800.3 | 791.9 | 783.5 | 774.8 | 766.2
1000 kPa, x2 = 0.3999 | 794.1 | 785.6 | 777.4 | 769.5 | 761.3 | 753.1 | 744.7 | 736.4
1000 kPa, x2 = 0.603 | 768.8 | 760.5 | 752.5 | 744.7 | 736.7 | 728.7 | 720.5 | 712.5
1000 kPa, x2 = 0.7998 | 748.9 | 740.8 | 732.8 | 725.2 | 717.4 | 709.4 | 701.4 | 693.5
3000 kPa, x2 = 0 | 865.8 | 857.5 | 848.6 | 840.2 | 831.7 | 823 | 814.3 | 805.5
3000 kPa, x2 = 0.2005 | 826.8 | 818.7 | 810.1 | 802 | 793.8 | 785.4 | 777.1 | 768.6
3000 kPa, x2 = 0.3999 | 795.4 | 787.4 | 779.1 | 771.3 | 763.3 | 755.1 | 747 | 738.8
3000 kPa, x2 = 0.603 | 770.2 | 762.3 | 754.1 | 746.5 | 738.7 | 730.7 | 722.8 | 714.9
3000 kPa, x2 = 0.7998 | 750.2 | 742.4 | 734.4 | 727 | 719.4 | 711.5 | 703.7 | 695.9
5000 kPa, x2 = 0 | 866.9 | 858.8 | 850.1 | 841.9 | 833.4 | 825 | 816.2 | 807.6
5000 kPa, x2 = 0.2005 | 828 | 820.1 | 811.7 | 803.8 | 795.6 | 787.5 | 779.1 | 770.8
5000 kPa, x2 = 0.3999 | 796.6 | 789 | 780.8 | 773.1 | 765.1 | 757.2 | 749 | 741
5000 kPa, x2 = 0.603 | 771.4 | 763.9 | 755.8 | 748.3 | 740.5 | 732.8 | 724.8 | 717.1
5000 kPa, x2 = 0.7998 | 751.5 | 744 | 736.1 | 728.8 | 721.2 | 713.6 | 705.8 | 698.2
10000 kPa, x2 = 0 | 870.5 | 862.3 | 854 | 845.9 | 837.6 | 829.4 | 821 | 812.4
10000 kPa, x2 = 0.2005 | 831.7 | 823.8 | 815.7 | 808 | 799.9 | 792 | 784 | 775.7
10000 kPa, x2 = 0.3999 | 800.4 | 792.5 | 784.7 | 777.3 | 769.5 | 761.8 | 753.9 | 745.9
10000 kPa, x2 = 0.603 | 775.2 | 767.5 | 759.8 | 752.6 | 744.9 | 737.5 | 729.8 | 722
10000 kPa, x2 = 0.7998 | 755.2 | 747.7 | 740.2 | 733.1 | 725.7 | 718.3 | 710.8 | 703
15000 kPa, x2 = 0 | 873.8 | 865.8 | 857.6 | 849.8 | 841.6 | 833.6 | 825.7 | 817.6
15000 kPa, x2 = 0.2005 | 835.1 | 827.3 | 819.4 | 811.9 | 804.1 | 796.4 | 788.7 | 781
15000 kPa, x2 = 0.3999 | 803.7 | 796.2 | 788.5 | 781.2 | 773.7 | 766.1 | 758.7 | 751.2
15000 kPa, x2 = 0.603 | 778.6 | 771.2 | 763.6 | 756.6 | 749.2 | 741.8 | 734.6 | 727.4
15000 kPa, x2 = 0.7998 | 758.6 | 751.4 | 743.9 | 737.1 | 729.9 | 722.6 | 715.6 | 708.5
20000 kPa, x2 = 0 | 877 | 869 | 861.1 | 853.6 | 845.6 | 837.9 | 829.8 | 821.8
20000 kPa, x2 = 0.2005 | 838.3 | 830.6 | 822.9 | 815.8 | 808.1 | 800.7 | 793 | 785.3
20000 kPa, x2 = 0.3999 | 807 | 799.5 | 792.1 | 785.1 | 777.7 | 770.5 | 763 | 755.6
20000 kPa, x2 = 0.603 | 781.8 | 774.4 | 767.2 | 760.4 | 753.2 | 746.2 | 739 | 731.7
20000 kPa, x2 = 0.7998 | 761.8 | 754.7 | 747.6 | 741 | 733.9 | 727 | 720 | 712.8
25000 kPa, x2 = 0 | 880.2 | 872.2 | 864.5 | 857 | 849.3 | 841.7 | 834 | 826
25000 kPa, x2 = 0.2005 | 841.5 | 833.8 | 826.4 | 819.2 | 811.9 | 804.6 | 797.2 | 789.5
25000 kPa, x2 = 0.3999 | 810.2 | 802.7 | 795.6 | 788.6 | 781.4 | 774.3 | 767.2 | 759.8
25000 kPa, x2 = 0.603 | 785 | 777.8 | 770.7 | 763.8 | 756.9 | 750 | 743.1 | 735.9
25000 kPa, x2 = 0.7998 | 765.1 | 758 | 751.1 | 744.4 | 737.7 | 730.9 | 724.1 | 717
30000 kPa, x2 = 0 | 883.2 | 875.3 | 867.7 | 860.4 | 852.8 | 845.5 | 838 | 830.2
30000 kPa, x2 = 0.2005 | 844.5 | 837 | 829.7 | 822.7 | 815.4 | 808.4 | 801.2 | 793.8
30000 kPa, x2 = 0.3999 | 813.3 | 805.9 | 798.8 | 792.1 | 785 | 778.2 | 771.2 | 764.1
30000 kPa, x2 = 0.603 | 788.1 | 780.9 | 773.9 | 767.4 | 760.5 | 753.9 | 747.1 | 740.2
30000 kPa, x2 = 0.7998 | 768.2 | 761.2 | 754.3 | 747.9 | 741.3 | 734.7 | 728.1 | 721.4
35000 kPa, x2 = 0 | 886 | 878.2 | 870.9 | 863.7 | 856.2 | 849.2 | 841.7 | 834.2
35000 kPa, x2 = 0.2005 | 847.3 | 840.1 | 833 | 826 | 818.9 | 812.1 | 805 | 797.8
35000 kPa, x2 = 0.3999 | 816.1 | 809 | 802.1 | 795.3 | 788.4 | 781.9 | 775 | 768.1
35000 kPa, x2 = 0.603 | 790.9 | 784.1 | 777.2 | 770.6 | 763.9 | 757.6 | 750.9 | 744.3
35000 kPa, x2 = 0.7998 | 771 | 764.3 | 757.6 | 751.2 | 744.7 | 738.4 | 731.9 | 725.4
40000 kPa, x2 = 0 | 888.7 | 881 | 873.8 | 866.9 | 859.7 | 852.5 | 845.3 | 838.1
40000 kPa, x2 = 0.2005 | 850.1 | 842.9 | 835.9 | 829.2 | 822.4 | 815.5 | 808.6 | 801.7
40000 kPa, x2 = 0.3999 | 818.8 | 811.8 | 805 | 798.6 | 792 | 785.3 | 778.6 | 772
40000 kPa, x2 = 0.603 | 793.7 | 786.9 | 780.1 | 773.9 | 767.4 | 761 | 754.5 | 748.2
40000 kPa, x2 = 0.7998 | 773.8 | 767.1 | 760.5 | 754.4 | 748.2 | 741.8 | 735.4 | 729.3
50000 kPa, x2 = 0 | 894.4 | 886.7 | 879.8 | 873 | 866 | 859.1 | 852.1 | 845.2
50000 kPa, x2 = 0.2005 | 855.8 | 848.6 | 841.9 | 835.3 | 828.7 | 822.1 | 815.4 | 808.8
50000 kPa, x2 = 0.3999 | 824.5 | 817.5 | 810.9 | 804.7 | 798.2 | 791.9 | 785.4 | 779.1
50000 kPa, x2 = 0.603 | 799.4 | 792.6 | 786.1 | 779.9 | 773.7 | 767.6 | 761.3 | 755.2
50000 kPa, x2 = 0.7998 | 779.4 | 772.8 | 766.4 | 760.4 | 754.4 | 748.5 | 742.2 | 736.3
60000 kPa, x2 = 0 | 899.1 | 892 | 885.1 | 878.8 | 871.9 | 865 | 858.5 | 852
60000 kPa, x2 = 0.2005 | 860.6 | 853.9 | 847.2 | 841.2 | 834.6 | 828.1 | 821.8 | 815.6
60000 kPa, x2 = 0.3999 | 829.2 | 822.7 | 816.2 | 810.5 | 804.2 | 797.8 | 791.8 | 785.8
60000 kPa, x2 = 0.603 | 804 | 797.8 | 791.3 | 785.8 | 779.6 | 773.4 | 767.6 | 761.8
60000 kPa, x2 = 0.7998 | 784.1 | 778 | 771.6 | 766.3 | 760.4 | 754.2 | 748.5 | 742.9
